According to patent publication US11014891B2, “Reduction-triggered antibacterial sideromycins” (priority 2013, dated 2021):

Key:
Test in all cases: agar diffusion antibacterial susceptibility assay
[1] = system: B. subtilis ATCC 6633; format: cell-based, Bacillus subtilis; settings: ciprofloxacin in H2O, concentration per footnote mark c
Description: (§1) Representative Gram-positive strains included Bacillus subtilis, Staphylococcus aureus and Micrococcus luteus. The Gram-negative strains studied included Pseudomonas aeruginosa (a wild type K799/wt and a penetration mutant strain K799/61), Escherichia coli, and Acinetobacter baumannii.

[2] = system: S. aureus SG 511; format: cell-based, Staphylococcus aureus; settings: ciprofloxacin in H2O, concentration per footnote mark b
Description: as §1

[3] = system: M. luteus ATCC 10240; format: cell-based, Micrococcus luteus; settings: ciprofloxacin in H2O, concentration per footnote mark b
Description: as §1

[4] = system: E. coli X580; format: cell-based, Escherichia coli; settings: ciprofloxacin in H2O, concentration per footnote mark d
Description: as §1

[5] = system: A. baumannii ATCC 17961; format: cell-based, Acinetobacter baumannii; settings: ciprofloxacin in H2O, concentration per footnote mark b; 100 μM 2,2′-bipyridine
Description: The siderophore-ciprofloxacin conjugates 13 and 23 were first evaluated for their ability to inhibit the growth of bacteria using the agar well diffusion test. Representative Gram-positive strains included Bacillus subtilis, Staphylococcus aureus and Micrococcus luteus. The Gram-negative strains studied included Pseudomonas aeruginosa (a wild type K799/wt and a penetration mutant strain K799/61), Escherichia coli, and Acinetobacter baumannii.

O=C(O)c1cn(C2CC2)c2cc(N3CCNCC3)c(F)cc2c1=O [Ciprofloxacin, ciprofloxacin]
Diameter of growth inhibition zones [1]: 28^c mm | Diameter of growth inhibition zones [2]: 28^b mm | Diameter of growth inhibition zones [3]: 12P^b | Diameter of growth inhibition zones [4]: 31^d mm | Diameter of growth inhibition zones [5]: 15p^b
